{
  "source": "paper PMC9767854",
  "about": "“Discovery and mechanism studies of a novel ATG4B inhibitor Ebselen by drug repurposing and its anti-colorectal cancer effects in mice” (Cell & Bioscience, 2022)",
  "key": {"[1]": {"test_system": "Caspase 1, 2, 3, 4, 6, 8 and 9", "assay": "Caspase activity assay kits, caspase panel", "assay_type": "biochemical", "details": "10 μM; most caspases other than CASP2 and CASP3", "procedure": "The enzyme activity of Caspase 1, Caspase 2, Caspase 3, Caspase 4, Caspase 6, Caspase 8 and Caspase 9 were determined via the activity assay kits (C1101, C1107, C1115, C1121, C1135, C1151 and C1157) from Beyotime (Shanghai, China). Then the experimental procedures were performed according to the manufacturer’s protocols."}, "[2]": {"target": "T1, ATG4B (Homo sapiens, UniProt Q9Y4P1)", "T1 construct": "6xHis; made in house; host or cells: E. coli BL21(DE3)", "T1 sequence (Q9Y4P1 1-393)": "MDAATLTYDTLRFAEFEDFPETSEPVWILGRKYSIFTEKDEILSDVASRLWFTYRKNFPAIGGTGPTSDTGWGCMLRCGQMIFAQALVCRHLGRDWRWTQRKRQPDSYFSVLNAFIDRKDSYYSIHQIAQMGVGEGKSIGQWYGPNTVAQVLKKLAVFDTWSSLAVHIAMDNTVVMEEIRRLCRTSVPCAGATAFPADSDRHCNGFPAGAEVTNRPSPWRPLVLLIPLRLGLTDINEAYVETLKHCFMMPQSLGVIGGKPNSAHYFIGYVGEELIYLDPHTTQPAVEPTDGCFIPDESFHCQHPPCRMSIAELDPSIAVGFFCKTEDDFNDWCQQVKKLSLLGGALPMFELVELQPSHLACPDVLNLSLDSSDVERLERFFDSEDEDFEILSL", "assay": "ATG4B oligomerization by non-reducing electrophoresis", "assay_type": "biochemical", "details": "ATG4B 5 μM; Ebselen 5, 25, 50 μM or FMK-9a 50 μM; 0.5, 1, 3 h", "excerpt": "The aggregates formed could be reversibly regulated by a reducing agent, because an assay to add dithiothreitol (DTT) into the reaction was operated. […] Furthermore, we also evaluated the redox properties of analogues on ATG4B."}, "[3]": {"test_system": "HCT116", "assay": "Autophagy flux by LC3B-II western blot in HCT116", "assay_type": "cell-based", "details": "Ebselen 5 and 10 μM with CQ 40 μM", "procedure": "Fig. 5 Ebselen suppresses autophagy flux via inhibition of ATG4B. A, B HeLa cells were treated with Torin 1 (2 μM) or CQ (40 μM) and detected by western blot. C, D SW620 cells were transduced with sgCon and sgATG4B lentiviruses, respectively. Then cells were treated with CQ (40 μM) and detected by western blot. E, F HCT116 were treated with Ebselen (5 and 10 μM) or CQ (40 μM) and subjected to western blot. G, H SW620 were treated with Ebselen (10 μM) or CQ (40 μM) and western blotting was carried out to detect the protein levels. I, J Immunofluorescence analysis of endogenous LC3B in HCT116 treated with Ebselen (10 μM) or CQ (40 μM). Dots numbers for LC3B were derived from counting at least 20 cells and 5 fields from three independent replicated experiments. Bar = 10 μm. K HCT116 cells were treated with 2 μM Torin 1 in the presence or absence of 10 μM Ebselen for 12 h, then the level ratio of long-lived proteins was measured by flow cytometry\nImmunoblotting assay was performed reportedly previously. Commonly, cells were lysed in ice-cold RIPA lysis buffer (Beyotime, P0013B) supplemented with Pierce™ protease inhibitor tablet (ThermoFisher Scientific, A32965). […]"}, "[4]": {"test_system": "SW620 cell-based xenografts", "assay": "SW620 subcutaneous xenograft tumor model", "assay_type": "in vivo, BALB/c-nu/nu mice", "procedure": "Fig. 7 Ebselen suppresses colorectal cancer tumor growth. A A brief diagram of the animal experiment for subcutaneous xenografted tumor model. 2 × 10^6 (2e^6) SW620 cells were xenografted into BALB/c-nu/nu mice by subcutaneous injection (s.c.). After 10 days, mice were injected intraperitoneally (i.p.) with indicated doses of Ebselen every two days, and monitoring of tumor volume and body weight changes were performed. B–D Representative tumor images and tumor weight at the end time point were captured from SW620 cell-based xenografts. Mean tumor weight ± SEM (C) and mean tumor volume ± SEM (D) were shown. E The inhibitory effect of ATG4 in xenografted tumors was detected by FRET assay. F, I The protein level of autophagy and apoptosis in xenografted tumors were detected by western blot. Representative results were shown and the statistical results of each group were obtained from seven mice. J, K The immunohistochemistry analysis of Ki67 in xenografted tumors (group vehicle and Ebselen 10 mg/kg). Bar = 20 μm. […]\nFour- to six-weeks-old BALB/C nu/nu female mice purchased from the Experimental Animal Center of Sun Yat-Sen University, were approved by the Animal Ethics Committee at Sun Yat-sen University and kept in specific-pathogen-free environment. […] Tumor volume was measured by calipers and calculated using the equation: 0.5 × length × width^2. […]"}, "[5]": {"test_system": "HCT116 based xenograft", "assay": "HCT116 subcutaneous xenograft tumor model", "assay_type": "in vivo, BALB/c-nu/nu mice", "details": "i.p., compared with SW620 xenografts", "procedure": "(§1) Four- to six-weeks-old BALB/C nu/nu female mice purchased from the Experimental Animal Center of Sun Yat-Sen University, were approved by the Animal Ethics Committee at Sun Yat-sen University and kept in specific-pathogen-free environment. Approximately 2 × 10^6 SW620 cells or 1 × 10^7 HCT116 cells were injected subcutaneously into the dorsal flank on the right side of the mice. Different groups were divided randomly when the tumor volume was approximately 60–80 mm^3, before drug administration intraperitoneally (i.p.). Tumor volume was measured by calipers and calculated using the equation: 0.5 × length × width^2. At the end of the experiments, the mice were sacrificed and tumors were dissected and weighed. In particular, we employed Servicebio (Wuhan, China) to carry out H&E staining and immunohistochemistry assay.\n(§2) Supplementary file 13578_2022_944_MOESM1_ESM.docx: Additional file 1: Figure S1. Screening of ATG4B inhibitors based on the approved drugs library by FRET assay. […] (D) Candidate compound number and name correspondence table, and IC50 calculation of nine commercially available compounds for ATG4B by FRET assay. Figure S2. […] Figure S3. […] Figure S5. […] Figure S6."}, "[6]": {"assay": "Body weight and organ H&E in xenografted mice", "assay_type": "in vivo, BALB/c-nu/nu mice", "details": "5, 10, 20 mg/kg i.p. every two days", "procedure": "as §1, §2"}, "[7]": {"test_system": "ATG4 (mainly ATG4B) in tumors", "assay": "ATG4 activity in xenografted tumors by FRET assay", "assay_type": "in vivo, BALB/c-nu/nu mice", "details": "SW620 xenografts, 5, 10, 20 mg/kg", "description": "FRET-based assay for ATG4B or ATG4A activity was operated as previously described [5, 17]. Briefly, Recombinant protein ATG4B (0.75 μg/ml) or ATG4A (5 μg/ml) was incubated with compounds in reaction buffer (150 mM NaCl, 20 mM Tris–HCl, pH 8.0, 0.1% CHAPS, 1 mM EDTA) at 37 °C. After 30 min, substrate FRET-GATE-16 (50 μg/ml) was added to a final volume of 50 μl. The reaction was recorded via relative fluorescence intensity ratio of 527 nm/477 nm (RFU). The final inhibition rate of the compound for ATG4 was calculated as: (RFUcompound-RFUNC)/(RFUCON-RFUNC) × 100%; respectively, NC as negative control without inhibitor, CON as control without enzymes. For ATG4 activity determination in cells and tissues, cells or separated tumor samples were homogenized in a native lysis buffer (150 mM NaCl, 20 mM Tris–HCl, pH 7.6, 1% TritonX-100, 1 mM EDTA) without protease inhibitors. Then 5 μg total proteins from each sample was added into FRET assay system after clean supernatant proteins were separated. The reaction was recorded via relative fluorescence intensity ratio of 527 nm/477 nm. Finally, the inhibition rates of ATG4B were calculated with the vehicle or CM group as the negative control (ATG4 activity defined as 100%)."}},
  "data": [
    {"smiles": "O=c1c2ccccc2[se]n1-c1ccccc1", "note": "[Ebselen]", "values": [
      {"measurement": "effect on most caspase activities", "setting": "[1]", "result": "no significant effect"},
      {"measurement": "ATG4B oligomerization", "setting": "[2]", "result": "oligomerization occurred"},
      {"measurement": "autophagic flux (LC3B-II)", "setting": "[3]", "result": "inhibition of autophagic flux"},
      {"measurement": "anti-tumor effect", "setting": "[4]; 5 mg/kg i.p. every two days", "result": "obvious anti-tumor effect"},
      {"measurement": "growth of tumors", "setting": "[4]; 5, 10, 20 mg/kg i.p. every two days, compared with vehicle", "result": "significantly suppress the growth of tumors"},
      {"measurement": "tumor suppression", "setting": "[5]", "result": "slightly weaker potential for tumor suppression"},
      {"measurement": "body weight change or organs damage", "setting": "[6]", "result": "no obvious mice body weight change or organs damage"},
      {"measurement": "activity of ATG4 in tumors", "setting": "[7]", "result": "significantly inhibited in a dose-dependent manner"}
    ]}
  ]
}
